Patent publication US20130085064A1, “PESTICIDAL MIXTURES CONTAINING ISOXAZOLINE DERIVATIVES AND INSECTICIDE OR NEMATOICIDAL BIOLOGICAL AGENT” (priority 2010, published 2013)
Several values for one entry are separate records, joined by “and”; a condition that tells them apart may be missing. Equal entries are not always repeated. Where two headings read alike, the source gives them in different places.

Key:
Type in all cases: in vivo
[1] = test system: Spodoptera littoralis (Egyptian cotton leaf worm); assay: Spodoptera littoralis larvicide L1, feeding/contact, cotton leaf discs; details: single compound
Excerpt: (§1) The action to be expected E for a given active ingredient combination obeys the so-called COLBY formula and can be calculated as follows (COLBY, S.R. “Calculating synergistic and antagonistic responses of herbicide combination”. Weeds, Vol. 15, pages 20-22; 1967):
(§2) ppm=milligrams of active ingredient (=a.i.) per liter of spray mixture X=% action by active ingredient A) using p ppm of active ingredient Y=% action by active ingredient B) using q ppm of active ingredient.
(§3) According to COLBY, the expected (additive) action of active ingredients A)+B) using p+q ppm of active ingredient is
(§4) If the action actually observed (O) is greater than the expected action (E), then the action of the combination is super-additive, i.e. there is a synergistic effect. In mathematical terms the synergism factor SF corresponds to O/E. In the agricultural practice an SF of ≧1.2 indicates significant improvement over the purely complementary addition of activities (expected activity), while an SF of ≦0.9 in the practical application routine signals a loss of activity compared to the expected activity.
Spodoptera Littoralis (Egyptian Cotton Leaf Worm)
(Larvicide L1, Feeding/Contact)
Cotton leaf discs are placed on agar in Petri dishes and sprayed with test solutions in an application chamber. After drying, the leaf discs are infested with 10 L1 larvae. The samples are checked for mortality 5 days after treatment. 3 replicates per treatment were evaluated. (1 PPM=1 mg l^−1)

[2] = test system: Heliothis virescens (tobacco budworm); assay: Heliothis virescens ovo-larvicide, feeding/contact, eggs on filter paper in Petri dishes; details: for AVERAGE DEAD IN % (LARVAE) / AVERAGE DEAD IN % (EGGS): single compound, 7 days
Excerpt: as §1, §2, §3, §4
Heliothis Virescens (Tobacco Budworm):
(Ovo-Larvicide, Feeding/Contact)
30-35 fresh eggs (0-24 h old), deposited on filter paper, are placed in Petri dishes on top of a layer of artificial diet and 0.8 ml of diluted test solutions are pipetted onto them. After an incubation period of 7 days, samples are checked for egg and larval mortality. 3 replicates per treatment were evaluated.

[3] = test system: Heliothis virescens (tobacco budworm); assay: Heliothis virescens eggs in 24-well microtiter plate on artificial diet, larval mortality; details: for pest or weed control at 6.25 ppm / pest or weed control at 12.5 ppm / pest or weed control at 25 ppm / pest or weed control at 50 ppm / pest or weed control at 100 ppm / pest or weed control at 200 ppm: Heliothis virescens, 96 h, read-out: AVERAGE DEAD IN %
Excerpt: as §1, §2, §3, §4
Heliothis Virescens (Tobacco Budworm)
Eggs (0-24 h old) are placed in 24-well microtiter plate on artificial diet and treated with test solutions (DMSO) by pipetting. After an incubation period of 4 days, samples are checked for larval mortality.

[4] = test system: Tetranychus urticae (two spotted spider mite); assay: Tetranychus urticae contact/feeding activity on bean plants, adult mortality
Excerpt: as §1, §2, §3, §4
Tetranychus Urticae (Two Spotted Spider Mite)
(Contact/Feeding Activity)
Bean plants are infested with mite populations of mixed ages. 1 day after infestation, plants are treated in a spray chamber with diluted test solutions. 1 and 8 days later, samples are checked for adult mortality. 2 replicates per treatment were evaluated.

[5] = test system: Tetranychus urticae (two-spotted spider mite); assay: Tetranychus urticae bean leaf discs in 24-well microtiter plates, mixed population mortality; details: 8 days
Excerpt: as §1, §2, §3, §4
Tetranychus Urticae (Two-Spotted Spider Mite)
Bean leaf discs on agar in 24-well microtiter plates are sprayed with test solutions (DMSO). After drying, the leaf discs are infested with mite populations of mixed ages. 8 days later, discs are checked for mixed population mortality.

With abamectin the “AVERAGE DEAD IN % AFTER 5 DAYS” value ([1]; 0.4 PPM AI) was 10% and 7%, the “AVERAGE DEAD IN % AFTER 5 DAYS” value ([1]; 0.8 PPM AI) was 13% and 10% and the “AVERAGE DEAD IN % AFTER 5 DAYS” value ([1]; 1.6 PPM AI) was 40% and 20%. For the same compound, the activity on eggs ([2]; egg mortality, 7 days incubation) was “inactive”, the “AVERAGE DEAD IN % (LARVAE)” value ([2]; 0.025 ppm AI) was 3% and the “AVERAGE DEAD IN % (LARVAE)” value ([2]; 0.05 ppm AI) was 37%. For the same compound, the “AVERAGE DEAD IN % (LARVAE)” value ([2]; 0.1 ppm AI) was 53%, the “AVERAGE DEAD IN %” value ([3]; single compound at 0.2 ppm AI) was 0% and the “AVERAGE DEAD IN %” value ([3]; single compound at 0.4 ppm AI) was 45%. For the same compound, the “AVERAGE DEAD IN %” value ([3]; single compound at 0.8 ppm AI) was 68%, the “AVERAGE DEAD IN %” value ([3]; single compound at 1.6 ppm AI) was 78% and the “AVERAGE DEAD IN %” value ([3]; single compound at 3.2 ppm AI) was 100%. The “AVERAGE DEAD IN %” value ([3]; single compound at 6.4 ppm AI) was 100%, the “AVERAGE DEAD IN % AFTER 8 DAYS” value ([4]; 0.0015 ppm alone) was 25% and the “AVERAGE DEAD IN % AFTER 8 DAYS” value ([4]; 0.003 ppm alone) was 20%. The “AVERAGE DEAD IN % AFTER 8 DAYS” value ([4]; 0.006 ppm alone) was 25%, the “AVERAGE DEAD IN % AFTER 1 DAY” value ([4]; Abamectin alone 0.0015 ppm AI) was 0% and the “AVERAGE DEAD IN % AFTER 1 DAY” value ([4]; Abamectin alone 0.003 ppm AI) was 0%. The “AVERAGE DEAD IN % AFTER 1 DAY” value ([4]; Abamectin alone 0.006 ppm AI) was 0%, the “AVERAGE DEAD IN %” value ([5]; 0.0002 ppm alone) was 0% and the “AVERAGE DEAD IN %” value ([5]; 0.0004 ppm alone) was 0%. The “AVERAGE DEAD IN %” value ([5]; 0.0008 ppm alone) was 0%, the “AVERAGE DEAD IN %” value ([5]; 0.0015 ppm alone) was 0% and the “AVERAGE DEAD IN %” value ([5]; 0.003 ppm alone) was 0%. For the same compound, the “AVERAGE DEAD IN %” value ([5]; 0.006 ppm alone) was 0%, the “AVERAGE DEAD IN %” value ([5]; 0.0125 ppm alone) was 0% and the “AVERAGE DEAD IN %” value ([5]; 0.025 ppm alone) was 0%. For the same compound, the “AVERAGE DEAD IN %” value ([5]; 0.05 ppm alone) was 85%, the “AVERAGE DEAD IN %” value ([5]; 0.1 ppm alone) was 85% and the “AVERAGE DEAD IN %” value ([5]; Abamectin alone, 0.0002 ppm, Table 120) was 0%. The “AVERAGE DEAD IN %” value ([5]; Abamectin alone, 0.0004 ppm, Table 120) was 0%, the “AVERAGE DEAD IN %” value ([5]; Abamectin alone, 0.0008 ppm, Table 120) was 0% and the “AVERAGE DEAD IN %” value ([5]; Abamectin alone, 0.0015 ppm, Table 120) was 0%. The “AVERAGE DEAD IN %” value ([5]; Abamectin alone, 0.003 ppm, Table 120) was 0%, the “AVERAGE DEAD IN %” value ([5]; Abamectin alone, 0.006 ppm, Table 120) was 0% and the “AVERAGE DEAD IN %” value ([5]; Abamectin alone, 0.0125 ppm, Table 120) was 0%. For the same compound, the “AVERAGE DEAD IN %” value ([5]; Abamectin alone, 0.025 ppm, Table 120) was 0%, the “AVERAGE DEAD IN %” value ([5]; Abamectin alone, 0.05 ppm, Table 120) was 70% and the “AVERAGE DEAD IN %” value ([5]; Abamectin alone, 0.1 ppm, Table 120) was 80%.

With CN1COCN(Cc2cnc(Cl)s2)/C1=N\[N+](=O)[O-] [Thiamethoxam, thiamethoxam] the “AVERAGE DEAD IN % AFTER 5 DAYS” value ([1]; 0.2 PPM AI) was 7% and 10%, the “AVERAGE DEAD IN % AFTER 5 DAYS” value ([1]; 0.2 ppm AI) was 10% and the “AVERAGE DEAD IN % AFTER 5 DAYS” value ([1]; 0.4 PPM AI) was 13%. For the same compound, the “AVERAGE DEAD IN % AFTER 5 DAYS” value ([1]; 0.4 ppm AI) was 13%, the “AVERAGE DEAD IN % AFTER 5 DAYS” value ([1]; 0.8 PPM AI) was 30% and the “AVERAGE DEAD IN % AFTER 5 DAYS” value ([1]; 0.8 ppm AI) was 30%. For the same compound, the “AVERAGE DEAD IN % (EGGS)” value ([2]; 100 ppm AI) was 0%, the “AVERAGE DEAD IN % (LARVAE)” value ([2]; 100 ppm AI) was 78% and the “AVERAGE DEAD IN % (EGGS)” value ([2]; 200 ppm AI) was 0%. The “AVERAGE DEAD IN % (LARVAE)” value ([2]; 200 ppm AI) was 80%, the pest or weed control at 6.25 ppm ([3]; Thiamethoxam alone 6.25 ppm AI) was 0% and the pest or weed control at 12.5 ppm ([3]; Thiamethoxam alone 12.5 ppm AI) was 0%. It also gave a pest or weed control at 25 ppm ([3]; Thiamethoxam alone 25 ppm AI) of 0%, a pest or weed control at 50 ppm ([3]; Thiamethoxam alone 50 ppm AI) of 0% and a pest or weed control at 100 ppm ([3]; Thiamethoxam alone 100 ppm AI) of 25%. It also gave a pest or weed control at 200 ppm ([3]; Thiamethoxam alone 200 ppm AI) of 65%, a pest or weed control at 6.25 ppm ([3]; single compound at 6.25 ppm AI) of 0% and a pest or weed control at 12.5 ppm ([3]; single compound at 12.5 ppm AI) of 0%. For the same compound, the pest or weed control at 25 ppm ([3]; single compound at 25 ppm AI) was 0%, the pest or weed control at 50 ppm ([3]; single compound at 50 ppm AI) was 0% and the pest or weed control at 100 ppm ([3]; single compound at 100 ppm AI) was 25%. For the same compound, the pest or weed control at 200 ppm ([3]; single compound at 200 ppm AI) was 65%, the “AVERAGE DEAD IN % AFTER 8 DAYS” value ([4]; 200 ppm alone) was 5% and the “AVERAGE DEAD IN % AFTER 1 DAY” value ([4]; Thiamethoxam alone 200 ppm AI) was 0%. For the same compound, the “AVERAGE DEAD IN %” value ([5]; 25 ppm alone) was 0%, the “AVERAGE DEAD IN %” value ([5]; 50 ppm alone) was 13% and the “AVERAGE DEAD IN %” value ([5]; 100 ppm alone) was 38%. For the same compound, the “AVERAGE DEAD IN %” value ([5]; 200 ppm alone) was 0%, the “AVERAGE DEAD IN %” value ([5]; 400 ppm alone) was 0% and the “AVERAGE DEAD IN %” value ([5]; 800 ppm alone) was 13%. For the same compound, the “AVERAGE DEAD IN %” value ([5]; Thiamethoxam alone, 25 ppm, Table 122) was 0%, the “AVERAGE DEAD IN %” value ([5]; Thiamethoxam alone, 50 ppm, Table 122) was 13% and the “AVERAGE DEAD IN %” value ([5]; Thiamethoxam alone, 100 ppm, Table 122) was 38%. The “AVERAGE DEAD IN %” value ([5]; Thiamethoxam alone, 200 ppm, Table 122) was 0%, the “AVERAGE DEAD IN %” value ([5]; Thiamethoxam alone, 400 ppm, Table 122) was 0% and the “AVERAGE DEAD IN %” value ([5]; Thiamethoxam alone, 800 ppm, Table 122) was 13%.
